Experimental findings from PubChem BioAssay (NCI) are described below.

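Step 1: Grow cells in 96-well plates. Step 2: Expose to compound for 48 hours at 5 concentrations. Step 3: Interpolate endpoints linearly; if unreached, use highest concentration. The concentration for 50% growth inhibition is given as GI50. TGI: total growth inhibition.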

What all share (assay): NCI tumour cell line growth inhibition, 48 h
Assay [1] relates to SNB-19 CNS.
Assay [2] concerns NCI-H522 lung.
The test system of assay [3] is UACC-257 melanoma.
Assay [4] concerns U251 CNS.
Assay [5] relates to SF-268 CNS.
The subject of assay [6] is MOLT-4 leukemia.
The test system of assay [7] is MCF7 breast.
Assay [8] relates to SF-295 CNS.
For assay [9], the system named is A549 NSCLC.
Assay [10] concerns HOP-62 NSCLC.

For `N#Cc1ccc(OCc2nc(N)nc(N)c2-c2ccc(Cl)c(Cl)c2)cc1`, the GI50 in assay [1] was 2.79 µM; in [2] it was 2.97 µM; in assay [3], 0.593 µM; in assay [4], 0.589 µM; in assay [5], 2.76 µM; in assay [6], 3.7 µM. Besides, the GI50 in [7] is 2.51 µM; in assay [8], 0.725 µM; in [9], 0.405 µM; in assay [10] it was 5.21 µM. Besides, the TGI is greater than 100 µM in assay [1]; 19.9 µM in assay [2]; 37.2 µM in assay [3]; greater than 100 µM in assay [4]; greater than 100 µM in [5]; 40.8 µM in assay [6]. The TGI in assay [7] was 34.5 µM; in assay [8], greater than 100 µM; in [9], 15.8 µM; in assay [10] it was greater than 100 µM.
Consider `O=C(Oc1cccc(F)c1OC(=O)c1cccc(O)c1)c1cccc(O)c1`, for which the GI50 in assay [1] was 99.6 µM; in assay [2], 13.4 µM; in assay [3], 39.8 µM; in assay [4], 17.8 µM; in [5], 11.2 µM; in assay [6] it was 15.9 µM. The GI50 in assay [7] is 34.9 µM; in assay [8], 36.1 µM; in [9], 24.6 µM; in [10], 50.7 µM. The TGI in assay [1] was greater than 100 µM; in [2] it was 48.8 µM; in assay [3], greater than 100 µM; in assay [4], greater than 100 µM; in assay [5] it was greater than 100 µM; in assay [6], greater than 100 µM. The TGI in assay [7], in assay [8], in assay [9] and in assay [10] was greater than 100 µM each time.
As to `CN(/N=C/c1cccc2cccnc12)c1ccc([N+](=O)[O-])cc1[N+](=O)[O-]`, the TGI in [1] was 40.2 µM; in [2] it was 57.2 µM; in assay [3], greater than 100 µM; in assay [4], 29.1 µM; in [5], 58.6 µM; in assay [6], greater than 100 µM. Besides, the TGI was greater than 100 µM in assay [7], 33 µM in [8], greater than 100 µM in assay [9] and 22.9 µM in assay [10].
Take `C/C=C(\C)C(=O)NC1=CC[C@@]2(C)C(=CCC3C2CC[C@@]2(C)C3CC[C@@H]2C(C)N(C)C)C1=O` (stereo not given in full): the GI50 in [1] is 15.9 µM; in assay [2], 7.79 µM; in assay [3], 2.88 µM; in assay [4] it was 4.34 µM; in [5], 2.14 µM; in assay [6], 0.843 µM. Also, the GI50 in assay [7] is 2.79 µM; in assay [8] it was 2.32 µM; in assay [9], 4.99 µM; in [10] it was 2.08 µM. In addition, the TGI was greater than 64.1 µM in assay [1]; 24 µM in assay [2]; 9.36 µM in assay [3]; 23.3 µM in [4]; 6.93 µM in assay [5]; 6.43 µM in assay [6]. Besides, the TGI is 14.2 µM in assay [7], 7.33 µM in [8], 23.4 µM in assay [9] and 5.51 µM in assay [10].
Turning to `C=CCN=c1sc2c(n1NC(=O)c1cc3ccc1CCc1ccc(cc1)CC3)C(=O)c1ccccc1C2=O`, the GI50 in [1] is 1.67 µM; in [2], 1.49 µM; in assay [3], 1.55 µM; in assay [4] it was 1.6 µM; in assay [5], 1.68 µM; in [6], 1.22 µM. The GI50 is 1.23 µM in [7], 1.68 µM in assay [8], 2.26 µM in [9] and 1.96 µM in assay [10]. Further, the TGI in assay [1] amounted to 3.44 µM; in [2], 4.19 µM; in assay [3], 3.15 µM; in assay [4] it was 4.28 µM; in [5], 4.48 µM; in assay [6] it was 5.76 µM. The TGI worked out at 3.36 µM in assay [7], 3.08 µM in [8], 5.61 µM in [9] and 4.85 µM in assay [10].
Turning to `CC(=O)NC1C(OC[C@@H](CC(=O)N[C@@H](CC(=O)O)CC(=O)N[C@H](CC(=O)N[C@@H](CCCN)CC(=O)N[C@@H](CCCN)CC(=O)N[C@H](CC(N)=O)C(C)C)C(C)C)NC(=O)C[C@@H](N)C(C)C)OC(CO)C(O)C1O` (stereo not given in full), the GI50 in assay [1], in [2], in assay [3], in assay [4], in [5] and in assay [6] was greater than 100 µM throughout. Further, the GI50 in [7], in assay [8], in [9] and in assay [10] was greater than 100 µM each time. Also, the TGI in [1], in [2], in [3], in assay [4], in assay [5] and in assay [6] was greater than 100 µM each time. Also, the TGI in assay [7], in [8], in [9] and in assay [10] was greater than 100 µM throughout.
